Where two headings read alike, the source gives them in different places. Bounds are passed on as bounds.

The source of these data is patent US8513234B2, “HIV integrase inhibitors” (Merck Sharp & Dohme Corp., priority 2008, dated 2013).

The target in series [1] is T1, recombinant integrase (HIV-1 integrase) (Human immunodeficiency virus type 1 group M subtype B, UniProt P04585).
T1 construct: Assays for the strand transfer activity of integrase were conducted in accordance with WO 02/30930 for recombinant integrase
Description: HIV-1 integrase assay: strand transfer catalyzed by recombinant integrase. To be noted: strand transfer activity. The series is classed as biochemical. The protocol:
HIV-1 Integrase Assay: Strand Transfer Catalyzed by Recombinant Integrase
Assays for the strand transfer activity of integrase were conducted in accordance with WO 02/30930 for recombinant integrase. […] For example, the compounds prepared in Examples 1 to 5 were tested in the integrase assay and found to have the IC50 values in Table B. (Compounds 6A and 6B were not tested in this assay.)
Further description on conducting the assay using preassembled complexes is found in Wolfe, A. L. et al., J. Virol. 1996, 70: 1424-1432, Hazuda et al., J. Virol. 1997, 71: 7005-7011; Hazuda et al., Drug Design and Discovery 1997, 15: 17-24; and Hazuda et al., Science 2000, 287: 646-650.

For a further series, the system named is HIV-1. Put plainly: Inhibition of acute HIV-1 infection of T-lymphoid cells (spread assay). Type of series: cell-based. Here is the method:
Assay for Inhibition of HIV-1 Replication
Assays for the inhibition of acute HIV-1 infection of T-lymphoid cells were conducted in accordance with Vacca, J. P. et al, Proc. Natl. Acad. Sci. USA 1994, 91: 4096.

The test system of a further series is wild type IIIB. Description: Single cycle infectivity assay in HeLa P4-2 cells, wild type virus. To be noted: single cycle infectivity, wild type IIIB, read-out: wild type IIIB IC50. Type of series: cell-based, HIV.
Series [2] has as its system virus containing G140S/Q148H mutation in the integrase gene. To be noted: k = IC50(mutant)/IC50(wild type). The protocol:
(§1) An assay for measuring the inhibition of acute HIV infection with HeLa P4-2 cells in a single cycle infectivity assay was conducted using methods described in Joyce et al., J. Biol. Chem. 2002, 277: 45811, Hazuda et al., Science 2000, 287: 646, and Kimpton et al, J. Virol. 1992, 66: 2232. Proviral plasmids encoding viruses containing specific mutations in the integrase gene (N155H, Q148R, Y143R, E92Q, or G140S/Q148H) were generated by site-directed mutagenesis, and viruses were produced by transfecting 293T cells with the appropriate proviral plasmids.

Series [3] relates to virus containing N155H mutation in the integrase gene. The note with it: k = IC50(mutant)/IC50(wild type). Here is the method: as §1
Series [4] has as its system virus containing Q148R mutation in the integrase gene. To be noted: k = IC50(mutant)/IC50(wild type). Here is the method: as §1
For series [5], the system named is virus containing Y143R mutation in the integrase gene. The note with it: k = IC50(mutant)/IC50(wild type). Here is the method:
as §1

Where [6] appears, read: Human immunodeficiency virus 1, IIIB, HeLaP4-2, HeLa P4-2 cells.

A word on the IC50: it is the concentration that gives 50% inhibition. Regarding `Cc1ccc(CNC(=O)c2nc3n(c(=O)c2O)[C@H](C)CCC[C@H]3N(C)C(=O)C(=O)N(C)C)cc1F` (racemic) [Compound 3A, Racemic-trans-N-(2-{[(3-fluoro-4-methylbenzyl)amino]carbonyl}-3-hydroxy-6-methyl-4-oxo-4,6,7,8,9,10-hexahydropyrimido[1,2-a]azepin-10-yl)-N,N′,N′-trimethylethanediamide], the concentration for half-maximal inhibition (IC50) was 40 nM in series [1] (read-out: IC50) and 31 nM with wild type IIIB (setting [6]). In addition, the “IC95 (nM) in the presence of 10% FBS” value in the series with HIV-1 came to 18 nM. The “Number of fold shift in IC50 versus wild type IIIB, G140S/Q148H” value (from here on “Number of fold shift … G140S/Q148H”) in series [2] is 4. Besides, in series [3], the “Number of fold shift in IC50 versus wild type IIIB, N155H” value (“Number of fold shift … N155H” for short) was 1. Moreover, in series [4], the “Number of fold shift in IC50 versus wild type IIIB, Q148R” value (shortened to “Number of fold shift … Q148R”) is 1.

On to `COC1(C)CCC(N(C)C(=O)C(=O)N(C)C)c2nc(C(=O)NCc3ccc(F)c(C)c3)c(O)c(=O)n2C1` (single isomer, unassigned) [Compound 2C, N-(2-{[(4-fluoro-3-methylbenzyl)amino]carbonyl}-3-hydroxy-7-methoxy-7-methyl-4-oxo-4,6,7,8,9,10-hexahydropyrimido[1,2-a]azepin-10-yl)-N,N′,N′-trimethylethanediamide], for which the IC50 in series [1] (IC50 (nM)) amounted to 73 nM; in the series on wild type IIIB (HeLa P4-2 cells), 8 nM. In addition, the “IC95 (nM) in the presence of 10% FBS” value in the series with HIV-1 amounted to 9 nM. Also, the “Number of fold shift … G140S/Q148H” value in series [2] turned out to be 68. Further, the “Number of fold shift … N155H” value in series [3] worked out at 19. Also, the “Number of fold shift … Q148R” value in series [4] came to 22. Also, the “Number of fold shift in IC50 versus wild type IIIB, Y143R” value (“Number of fold shift … Y143R” below) in series [5] turned out to be 3.

Regarding `COC1(C)CCC(N(C)C(=O)C(=O)N(C)C)c2nc(C(=O)NCc3ccc(F)c(C)c3)c(O)c(=O)n2C1` (single isomer, unassigned) [Compound 2D, N-(2-{[(4-fluoro-3-methylbenzyl)amino]carbonyl}-3-hydroxy-7-methoxy-7-methyl-4-oxo-4,6,7,8,9,10-hexahydropyrimido[1,2-a]azepin-10-yl)-N,N′,N′-trimethylethanediamide], the half-maximal inhibitory concentration (IC50) was 46 nM in series [1] (IC50 (nM)) and 23 nM in the series on wild type IIIB (HeLa P4-2 cells). Besides, the “IC95 (nM) in the presence of 10% FBS” value with HIV-1 is 14 nM. Besides, the “Number of fold shift … G140S/Q148H” value in series [2] turned out to be 4. In addition, the “Number of fold shift … N155H” value in series [3] is listed as 2. Besides, in series [4], the “Number of fold shift … Q148R” value worked out at 1. In series [5], the “Number of fold shift … Y143R” value stood at 2.

With `Cc1ccc(CNC(=O)c2nc3n(c(=O)c2O)C(C)CCCC3N(C)C(=O)C(=O)N(C)C)cc1F` (single isomer, unassigned) [Compound 3B, Cis-N-(2-{[(3-fluoro-4-methylbenzyl)amino]carbonyl}-3-hydroxy-6-methyl-4-oxo-4,6,7,8,9,10-hexahydropyrimido[1,2-a]azepin-10-yl)-N,N′,N′-trimethylethanediamide], the IC50 in series [1] (IC50 (nM)) was determined as 44 nM; in the series on wild type IIIB (setting [6]) it was 48 nM. In addition, the “IC95 (nM) in the presence of 10% FBS” value in the series on HIV-1 came out at 41 nM. In series [2], the “Number of fold shift … G140S/Q148H” value was 2. Further, the “Number of fold shift … N155H” value in series [3] was 1. Further, the “Number of fold shift … Q148R” value in series [4] stood at 1. In addition, the “Number of fold shift … Y143R” value in series [5] is recorded as 1.

Regarding `CN(C)C(=O)C(=O)N(C)C1COCCn2c1nc(C(=O)NCc1ccc(F)cc1)c(O)c2=O` (single isomer, unassigned; (+)) [Compound V, (+)N-(2-{[(4-fluorobenzyl)amino]carbonyl}-3-hydroxy-4-oxo-6,7,9,10-tetrahydro-4h-pyrimido[1,2-d][1,4]oxazepin-10-yl)-N,N′,N′-trimethylethanediamide, reference compound], in the series on wild type IIIB (setting [6]), the IC50 amounted to 37 nM. The “Number of fold shift … G140S/Q148H” value in series [2] is on record as more than 32. The “Number of fold shift … N155H” value in series [3] amounted to 10. For the same molecule, the “Number of fold shift … Q148R” value in series [4] turned out to be 13. Also, in series [5], the “Number of fold shift … Y143R” value was found to be 1.

As to `CN(C)C(=O)C(=O)N(C)C1COCCn2c1nc(C(=O)NCc1ccc(F)cc1)c(O)c2=O` (single isomer, unassigned; (-)) [Compound W, (−)N-(2-{[(4-fluorobenzyl)amino]carbonyl}-3-hydroxy-4-oxo-6,7,9,10-tetrahydro-4h-pyrimido[1,2-d][1,4]oxazepin-10-yl)-N,N′,N′-trimethylethanediamide, reference compound], the IC50 in the series with wild type IIIB (HeLa P4-2 cells) came to 26 nM. The “Number of fold shift … G140S/Q148H” value in series [2] is on record as more than 73. In series [3], the “Number of fold shift … N155H” value is on record as 29. In addition, the “Number of fold shift … Q148R” value in series [4] was 67. Besides, the “Number of fold shift … Y143R” value in series [5] is reported as 3.

Consider `Cc1cc(CNC(=O)c2nc3n(c(=O)c2O)CC(C)(C)CC[C@H]3N(C)C(=O)C(=O)N(C)C)ccc1F` [Compound 1A, N-((10R)-2-{[(4-fluoro-3-methylbenzyl)amino]carbonyl}-3-hydroxy-7,7-dimethyl-4-oxo-4,6,7,8,9,10-hexahydropyrimido[1,2-a]azepin-10-yl)-N,N′,N′-trimethylethanediamide], for which the IC50 in series [1] (read-out: IC50) was determined as 42 nM; with wild type IIIB (setting [6]), 41 nM. Besides, the “IC95 (nM) in the presence of 10% FBS” value with HIV-1 came to 12 nM. Moreover, in series [2], the “Number of fold shift … G140S/Q148H” value is reported as 9. Further, in series [3], the “Number of fold shift … N155H” value is 1. The “Number of fold shift … Q148R” value in series [4] came out at 2. Moreover, the “Number of fold shift … Y143R” value in series [5] came out at 1.

Consider `Cc1cc(CNC(=O)c2nc3n(c(=O)c2O)CC(C)(C)CC[C@@H]3N(C)C(=O)C(=O)N(C)C)ccc1F` [Compound 1B, N-((10S)-2-{[(4-fluoro-3-methylbenzyl)amino]carbonyl}-3-hydroxy-7,7-dimethyl-4-oxo-4,6,7,8,9,10-hexahydropyrimido[1,2-a]azepin-10-yl)-N,N′,N′-trimethylethanediamide], for which the concentration for half-maximal inhibition (IC50) in series [1] (read-out: IC50) stood at 38 nM; in the series with wild type IIIB (setting [6]), 13 nM. Also, the “IC95 (nM) in the presence of 10% FBS” value in the series on HIV-1 came to 10 nM. In addition, in series [2], the “Number of fold shift … G140S/Q148H” value came to 34. Further, the “Number of fold shift … N155H” value in series [3] is reported as 14. The “Number of fold shift … Q148R” value in series [4] stood at 12. The “Number of fold shift … Y143R” value in series [5] was determined as 1.

As to `CO[C@@]1(C)CC[C@H](N(C)C(=O)C(=O)N(C)C)c2nc(C(=O)NCc3ccc(F)c(C)c3)c(O)c(=O)n2C1` [Compound 2B, N-((7S,10S)-2-{[(4-fluoro-3-methylbenzyl)amino]carbonyl}-3-hydroxy-7-methoxy-7-methyl-4-oxo-4,6,7,8,9,10-hexahydropyrimido[1,2-a]azepin-10-yl)-N,N′,N′-trimethylethanediamide], the concentration for half-maximal inhibition (IC50) in series [1] (IC50 (nM)) is 41 nM; with wild type IIIB (setting [6]) it was 8 nM. Also, the “IC95 (nM) in the presence of 10% FBS” value in the series with HIV-1 came to 9 nM. Besides, the “Number of fold shift … G140S/Q148H” value in series [2] is on record as 190. Further, the “Number of fold shift … N155H” value in series [3] is 24. The “Number of fold shift … Q148R” value in series [4] worked out at 24. For the same molecule, the “Number of fold shift … Y143R” value in series [5] amounted to 3.

With `Cc1cc(CNC(=O)c2nc3n(c(=O)c2O)[C@@H](C)COC[C@@H]3N(C)C(=O)C(=O)N(C)C)ccc1F` [Compound 4B, N-((6S,10R)-2-{[(4-fluoro-3-methylbenzyl)amino]carbonyl}-3-hydroxy-6-methyl-4-oxo-6,7,9,10-tetrahydro-4H-pyrimido[1,2-d][1,4]oxazepin-10-yl)-N,N′,N′-trimethylethanediamide], the values for the IC50 (in series [1] (read-out: IC50); in the series on wild type IIIB (setting [6])) were 39 nM and 32 nM, respectively. Moreover, in the series on HIV-1, the “IC95 (nM) in the presence of 10% FBS” value is listed as 7 nM. Besides, in series [2], the “Number of fold shift … G140S/Q148H” value is listed as 20. Besides, in series [3], the “Number of fold shift … N155H” value stood at 2. Also, the “Number of fold shift … Q148R” value in series [4] came out at 3. Further, in series [5], the “Number of fold shift … Y143R” value turned out to be 2.

For the molecule `CCN(C(=O)C(=O)N(C)C)[C@H]1CC[C@H](OC)Cn2c1nc(C(=O)NCc1ccc(F)cc1)c(O)c2=O` [Compound 6B, N-ethyl-N-((7S,10S)-2-{[(4-fluorobenzyl)amino]carbonyl}-3-hydroxy-7-methoxy-4-oxo-4,6,7,8,9,10-hexahydropyrimido[1,2-a]azepin-10-yl)-N,N-dimethylethanediamide], in the series with HIV-1, the “IC95 (nM) in the presence of 10% FBS” value is 14 nM. In the series on wild type IIIB (setting [6]), the IC50 amounted to 13 nM. The “Number of fold shift … G140S/Q148H” value in series [2] is more than 100. In series [3], the “Number of fold shift … N155H” value is on record as 13. In series [4], the “Number of fold shift … Q148R” value was more than 100. Besides, in series [5], the “Number of fold shift … Y143R” value was more than 100.
